This is an account of results in paper PMC5046141, “Discovery of Isoquinolinoquinazolinones as a Novel Class of Potent PPARγ Antagonists with Anti-adipogenic Effects” (Scientific Reports, 2016).

In one assay the target is T1, PPARγ2-LBD (Mus musculus, UniProt P37238).
T1 construct: mouse PPARγ2 (residues 230–505) were expressed as N-terminal GST-tagged proteins; made in house; host or cells: E. coli BL21(DE3)
T1 sequence (P37238 230-505): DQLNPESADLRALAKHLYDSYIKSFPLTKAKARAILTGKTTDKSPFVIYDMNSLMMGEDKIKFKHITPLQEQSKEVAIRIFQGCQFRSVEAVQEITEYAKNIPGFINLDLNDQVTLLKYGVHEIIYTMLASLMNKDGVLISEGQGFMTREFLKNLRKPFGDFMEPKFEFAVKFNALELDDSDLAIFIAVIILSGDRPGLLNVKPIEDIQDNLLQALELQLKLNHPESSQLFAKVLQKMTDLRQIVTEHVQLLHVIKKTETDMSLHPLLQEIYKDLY
In words: Surface plasmon resonance binding to immobilized PPARγ2-LBD. Conditions: for Kd / kon / koff: SPR, 25 °C, PBS; for Kd: read-out: KD (equilibrium dissociation constant); for kon: read-out: ka (association rate constant); for koff: read-out: kd (dissociation rate constant). The protocol:
PPARγ2 protein was immobilized on the sensor chip, and the response (in resonance unit; RU) as a result of binding was continuously recorded and presented graphically as a function of time[25]. The association rate (ka also known as on rate (kon)), dissociation rate (kd also known as off rate (koff)), and equilibrium dissociation constant (KD) were calculated using the Scrubber 2 program (Table 2).
The recombinant ligand-binding domains (LBDs) of mouse PPARγ2 (residues 230–505) were expressed as N-terminal GST-tagged proteins using the pGEX4T3 vector. pGXE4T3-mPPARγ2-LBD plasmid was transfected into BL21(DE3) competent cells and the cells were grown in LB medium containing 50 μg/mL ampicillin at 37 °C to an O. D. 600 of 0.6–0.8. The expression of PPARγ2-LBD was induced by the addition of 0.2 mM isopropyl β-D-thiogalactoside (IPTG). After treatment for 24 h at 22 °C, the cells were harvested and disrupted using sonication buffer [25 mM HEPES (pH 7.5), 150 mM NaCl, 1% NP-40, 0.25% sodium deoxycholate, 10% glycerol, 25 mM NaF, 1 mM EDTA, 1 mM Na3VO4, 250 μM PMSF, 10 μg/mL leupeptin, and 10 μg/ml aprotinin]. The supernatant was applied to glutathione-Sepharose beads for 24 h at 4 °C. The bound GST fusion proteins were washed with the sonication buffer and eluted by elution buffer [25 mM glutathione, 50 mM Tris pH 8.8, 200 mM NaCl].
Immobilization of the protein on the hydrophilic carboxymethylated dextran matrix of the sensor chip (Reichert) was carried out using a standard primary amine coupling reaction. Free carboxyl groups on the surface were modified by injecting a mixture of 0.1 M 1-ethyl-3-(3-dimethylaminopropyl) carbodiimide hydrochloride and 0.05 M N-hydroxysuccinimide at a flow rate of 20 μL/min to generate a reactive succinimide ester surface. Baseline equilibration was achieved by flushing the chip with PBS buffer for 1–2 h. All of the SPR data was collected at 25 °C with PBS as running buffer at a constant flow of 30 μL/min. All the sensorgrams were processed by using automatic correction for nonspecific bulk refractive index effects. All the kinetic analyses of the binding to PPARγ2-LBD were calculated using the Scrubber2 program (Bio-Logic Software).
In general terms: SPR reads the build-up and loss of mass on a sensor chip optically.

The next assay deals with T2, R288G mutant PPARγ2 (Mus musculus, UniProt P37238, R316G).
T2 sequence (P37238 1-505 R316G): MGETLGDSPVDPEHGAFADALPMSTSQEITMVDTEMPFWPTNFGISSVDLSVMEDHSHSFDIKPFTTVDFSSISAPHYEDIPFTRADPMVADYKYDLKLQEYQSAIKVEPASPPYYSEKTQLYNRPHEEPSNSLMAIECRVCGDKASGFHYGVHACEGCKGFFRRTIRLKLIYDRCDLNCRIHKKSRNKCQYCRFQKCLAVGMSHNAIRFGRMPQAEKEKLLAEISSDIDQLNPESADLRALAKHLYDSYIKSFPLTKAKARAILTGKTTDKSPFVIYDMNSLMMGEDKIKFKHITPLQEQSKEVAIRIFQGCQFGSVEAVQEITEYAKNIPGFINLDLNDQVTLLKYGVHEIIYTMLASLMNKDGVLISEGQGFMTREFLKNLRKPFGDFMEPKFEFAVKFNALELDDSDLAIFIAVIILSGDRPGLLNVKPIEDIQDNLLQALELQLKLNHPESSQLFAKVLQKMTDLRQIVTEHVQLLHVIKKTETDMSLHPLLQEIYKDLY
T2 sequence (P28700 1-467 partner): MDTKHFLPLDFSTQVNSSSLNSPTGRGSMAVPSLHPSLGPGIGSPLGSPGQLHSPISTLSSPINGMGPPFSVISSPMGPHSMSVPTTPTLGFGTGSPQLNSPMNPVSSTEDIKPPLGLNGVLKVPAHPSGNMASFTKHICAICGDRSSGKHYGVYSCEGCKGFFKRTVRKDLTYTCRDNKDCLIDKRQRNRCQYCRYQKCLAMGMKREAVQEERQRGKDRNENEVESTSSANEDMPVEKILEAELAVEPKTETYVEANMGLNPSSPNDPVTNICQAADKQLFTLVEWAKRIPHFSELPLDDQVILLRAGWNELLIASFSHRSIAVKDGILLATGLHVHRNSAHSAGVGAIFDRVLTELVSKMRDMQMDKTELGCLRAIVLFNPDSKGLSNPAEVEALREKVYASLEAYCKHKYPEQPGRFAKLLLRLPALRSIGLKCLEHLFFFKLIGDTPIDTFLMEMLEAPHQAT
In words: PPRE-Luc reporter assay with R288G mutant PPARγ2 in 3T3-L1 cells. The note with it: 5 μM, 12 h. On the technique in general: In a reporter assay the amount or activity of a reporter protein is the signal.

With `COc1cc2cc3n(c(=O)c2cc1OC)CNc1cc(Cl)ccc1-3` [Compound 8o, 3-Chloro-10,11-dimethoxy-5H-isoquinolino[2,3-c]quinazolin-8(6H)-one], at PPARγ2-LBD, the Kd came to 146 µM, the kon was determined as 24 M⁻¹ s⁻¹ and the koff was found to be 0.00351 s⁻¹. At PPARγ2-LBD (ratio of KD values), the “binding affinity relative to GW9662 (less than)” value is recorded as 37 folds and the “binding affinity relative to rosiglitazone (more than)” value is 4 folds. The “effect of Arg288 to Gly substitution on the compound's inhibition of PPARγ2 activity” value at R288G mutant PPARγ2 is on record as “abolished the inhibitory effect”.
Regarding `O=C(Nc1ccccc1)c1cc([N+](=O)[O-])ccc1Cl` [GW9662, reference compound], at PPARγ2-LBD, the dissociation constant (Kd) turned out to be 3.91 µM, the kon is 15.1 M⁻¹ s⁻¹ and the koff amounted to 5.9e-05 s⁻¹.

As usually defined, the Kd is the constant that tells how readily two partners part at equilibrium.
